Measurements as given in patent US10059655B2, “Lipids and lipid compositions for the delivery of active agents” (priority 2013, dated 2018).

What was measured:
[1] = test system: mEPO; assay: Mouse EPO ELISA after IV injection of encapsulated mEPO mRNA; type: in vivo; conditions: 0.2 mpk, ob/ob mice, @ 24 h
Description: A rat anti-mouse Erythropoietin antibody is coated on 384-well white microtiter plates overnight, then blocked for assay. Then, plasma samples are diluted in a casein-based sample diluent and incubated on the plate with buffer controls and mouse EPO standards. The plate is then washed to remove unbound material. A biotinylated rat anti-mouse Erythropoietin antibody is then added to the plate to detect mouse EPO bound by the capture antibody. The plate is washed again and a streptavidin-conjugated horseradish peroxidase reagent is incubated on the plate. A third wash step is performed and a chemiluminescent reagent is added to the plate and immediately read by a capable plate reader using all wavelengths and a 50 millisecond integration time. Unknown samples are interpolated off the mouse EPO standard curve.

[2] = test system: RSV F protein; assay: RSV immunogenicity: F-specific IgG titers after IM vaccination with liposome-formulated self-replicating RNA; type: in vivo; conditions: IM days 0 and 21, BALB/c mice, two weeks after two immunizations

Compound	Expression of protein following IV injection of encapsulated mRNA: mEPO [1]	Immunogenicity (2wp2; log10 IgG titers) ([2]; 0.1 ng replicon RNA)	Immunogenicity (2wp2; log10 IgG titers) ([2]; 1 ng replicon RNA)
CCCCC/C=C\C/C=C\CCCCCCCC(=O)OCC(COC(=O)CCCCCCC/C=C\C/C=C\CCCCC)COC(=O)C1(C)CCN(C)C1 (centres unmarked) [Example 1, (9Z,9′Z,12Z,12′Z)-2-(((1,3-dimethylpyrrolidine-3-carbonyl)oxy)methyl)propane-1,3-diyl bis(octadeca-9,12-dienoate)]	22.5 ng/mL	3.99 log10 IgG titers	4.08 log10 IgG titers
CCCCC/C=C\C/C=C\CCCCCCCC(=O)OCC(COC(=O)CCC(OCCCCCCCC)OCCCCCCCC)COC(=O)OCC1CCCN(CC)C1 (centres unmarked) [Example 15, (9Z,12Z)-3-((4,4-bis(octyloxy)butanoyl)oxy)-2-(((((1-ethylpiperidin-3-yl)methoxy)carbonyl)oxy)methyl)propyl octadeca-9,12-dienoate]	–	4.45 log10 IgG titers	4.63 log10 IgG titers
